Laboratory results: PubChem BioAssay AID1918935 (Molecular Pharmacology Branch, DTP, NCI, 2023)

System: 324938-238-R-J1-PDC complex spheroid viability
Experiment: Anticancer human tumor 324938-238-R-J1-PDC patient-derived bladder carcinoma cell line growth inhibition
Details: for IC50: curve of first compound; for viability, T/C: stronger effect = lower value
Summary of the method: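 Complex spheroids of tumor cells with HUVEC and human MSCs, exposed to iadademstat combined with other agents. Each agent tested in half-log steps from near clinical Cmax (else 10 microM top), DMSO ≤0.25%.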

[1] = second compound 0.1 µM, first compound 0.0316 µM
[2] = second compound 0.1 µM, first compound 0.1 µM
[3] = second compound 0.1 µM, first compound 0.316 µM
[4] = second compound 0.1 µM, first compound 1 µM
[5] = second compound 0.1 µM, first compound 3.16 µM
[6] = second compound 0.1 µM, first compound 10 µM
[7] = second compound 0.316 µM, first compound 0.0316 µM
[8] = second compound 0.316 µM, first compound 0.1 µM
[9] = second compound 0.316 µM, first compound 0.316 µM
[10] = second compound 0.316 µM, first compound 1 µM
[11] = second compound 0.316 µM, first compound 3.16 µM
[12] = second compound 0.316 µM, first compound 10 µM
[13] = second compound 1 µM, first compound 0.0316 µM
[14] = second compound 1 µM, first compound 0.1 µM
[15] = second compound 1 µM, first compound 0.316 µM
[16] = second compound 1 µM, first compound 1 µM
[17] = second compound 1 µM, first compound 3.16 µM
[18] = second compound 1 µM, first compound 10 µM
[19] = second compound 3.16 µM, first compound 0.0316 µM
[20] = second compound 3.16 µM, first compound 0.1 µM
[21] = second compound 3.16 µM, first compound 0.316 µM
[22] = second compound 3.16 µM, first compound 1 µM
[23] = second compound 3.16 µM, first compound 3.16 µM
[24] = second compound 3.16 µM, first compound 10 µM
[25] = second compound 10 µM, first compound 0.0316 µM
[26] = second compound 10 µM, first compound 0.1 µM
[27] = second compound 10 µM, first compound 0.316 µM
[28] = second compound 10 µM, first compound 1 µM
[29] = second compound 10 µM, first compound 3.16 µM
[30] = second compound 10 µM, first compound 10 µM
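Further: spheroids exposed to agents for 7 days before readout.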

SMILES	IC50 (second compound 0.1 µM)	IC50 (second compound 0.316 µM)	IC50 (second compound 1 µM)	IC50 (second compound 3.16 µM)	IC50 (second compound 10 µM)	viability, T/C [1]	viability, T/C [2]	viability, T/C [3]	viability, T/C [4]	viability, T/C [5]	viability, T/C [6]	viability, T/C [7]	viability, T/C [8]	viability, T/C [9]	viability, T/C [10]	viability, T/C [11]	viability, T/C [12]	viability, T/C [13]	viability, T/C [14]	viability, T/C [15]	also measured
CC1(C)CCC(CN2CCN(c3ccc(C(=O)NS(=O)(=O)c4ccc(NCC5CCOCC5)c([N+](=O)[O-])c4)c(Oc4cnc5[nH]ccc5c4)c3)CC2)=C(c2ccc(Cl)cc2)C1 + NC1CC1c1ccc(-c2cccc(O)c2)cc1	3960 nM	4480 nM	3960 nM	4190 nM	2230 nM	94.5%	91.3%	91.7%	71%	61.5%	17.3%	72%	74.9%	73.2%	66.5%	64.2%	19.8%	78.4%	74.6%	66.4%	viability, T/C [16]: 69.8%; viability, T/C [17]: 58.5%; viability, T/C [18]: 19.8%; viability, T/C [19]: 70.9%; viability, T/C [20]: 68.3%; viability, T/C [21]: 68.1%; viability, T/C [22]: 74.3%; viability, T/C [23]: 59.6%; viability, T/C [24]: 20.3%; viability, T/C [25]: 70.5%; viability, T/C [26]: 67.6%; viability, T/C [27]: 66.3%; viability, T/C [28]: 56.8%; viability, T/C [29]: 47.9%; viability, T/C [30]: 17.8%
CC1COCCN1c1cc(C2(S(C)(=N)=O)CC2)nc(-c2ccnc3[nH]ccc23)n1 (stereo not given) + NC1CC1c1ccc(-c2cccc(O)c2)cc1	507 nM	301 nM	304 nM	374 nM	294 nM	86.1%	81.3%	58.3%	35.9%	18%	8.83%	80.1%	71%	46.3%	30.8%	20.5%	8.77%	74.5%	65.3%	47.9%	viability, T/C [16]: 34.6%; viability, T/C [17]: 21.8%; viability, T/C [18]: 9.55%; viability, T/C [19]: 67.6%; viability, T/C [20]: 71.5%; viability, T/C [21]: 47.8%; viability, T/C [22]: 35.9%; viability, T/C [23]: 22.2%; viability, T/C [24]: 10.4%; viability, T/C [25]: 75%; viability, T/C [26]: 66.1%; viability, T/C [27]: 45.7%; viability, T/C [28]: 36.4%; viability, T/C [29]: 21.2%; viability, T/C [30]: 12.2%
